Reference: PMC5218480 (PLoS ONE, 2017)

Test system: MV-4-11 cells
Experiment: Gene expression microarray analysis (Affymetrix PrimeView) and GSEA
Assay type: cell-based, human
Set-up: RFU PODN (11730768_x_at) / Fold change /veh PODN (11730768_x_at) / RFU LINC00158 (11744669_a_at) / Fold change /veh LINC00158 (11744669_a_at) / RFU DUSP10 (11751237_a_at) / Fold change /veh DUSP10 (11751237_a_at) / RFU ID3 (11757404_x_at) / Fold change /veh ID3 (11757404_x_at) / RFU PLEKHG5 (11737974_s_at) / Fold change /veh PLEKHG5 (11737974_s_at) / RFU LRRC4B (11730491_at) / Fold change /veh LRRC4B (11730491_at) / RFU GIMAP4 (11747438_a_at) / Fold change /veh GIMAP4 (11747438_a_at) / RFU KRT8 (11758183_x_at) / Fold change /veh KRT8 (11758183_x_at) / RFU CNN1 (11734310_a_at) / Fold change /veh CNN1 (11734310_a_at) / RFU VPS37D (11726825_at) / Fold change /veh VPS37D (11726825_at) / RFU C10orf10 (11716522_x_at) / Fold change /veh C10orf10 (11716522_x_at) / RFU KIR2DL2 /// KIR2DL4 /// KIR2DL5A /// KIR2DL5B /// KIR2DS1 /// KIR2DS2 /// KIR2DS3 /// KIR2DS4 /// KIR3DL3 /// KIR3DL3 /// KIR3DS1 (11738374_at) / Fold change /veh KIR2DL2 /// KIR2DL4 /// KIR2DL5A /// KIR2DL5B /// KIR2DS1 /// KIR2DS2 /// KIR2DS3 /// KIR2DS4 /// KIR3DL3 /// KIR3DL3 /// KIR3DS1 (11738374_at) / RFU C1QL1 (11718748_at) / Fold change /veh C1QL1 (11718748_at) / RFU TMPRSS4 (11747572_a_at) / Fold change /veh TMPRSS4 (11747572_a_at) / RFU HAMP (11756126_x_at) / Fold change /veh HAMP (11756126_x_at) / RFU RNFT2 (11725882_a_at) / Fold change /veh RNFT2 (11725882_a_at) / RFU NR4A2 (11747474_a_at) / Fold change /veh NR4A2 (11747474_a_at) / RFU ABCC12 (11746883_a_at) / Fold change /veh ABCC12 (11746883_a_at) / RFU TMEM136 (11760407_x_at) / Fold change /veh TMEM136 (11760407_x_at) / RFU CLDN22 /// WWC2 (11732394_at) / Fold change /veh CLDN22 /// WWC2 (11732394_at) / RFU HLA-DPB1 (11760878_x_at) / Fold change /veh HLA-DPB1 (11760878_x_at) / RFU SPINT1 (11716480_a_at) / Fold change /veh SPINT1 (11716480_a_at) / RFU GAP43 (11754022_s_at) / Fold change /veh GAP43 (11754022_s_at) / RFU A4GNT (11735810_at) / Fold change /veh A4GNT (11735810_at) / RFU PRB3 (11715151_x_at) / Fold change /veh PRB3 (11715151_x_at) / RFU TUBB4B (11761932_at) / Fold change /veh TUBB4B (11761932_at) / RFU CAPN14 (11732068_a_at) / Fold change /veh CAPN14 (11732068_a_at) / RFU TMCC2 (11721928_a_at) / Fold change /veh TMCC2 (11721928_a_at) / RFU IRGQ (11745062_a_at) / Fold change /veh IRGQ (11745062_a_at) / RFU FAM174B (11720279_a_at) / Fold change /veh FAM174B (11720279_a_at) / RFU TMPRSS4 (11748680_a_at) / Fold change /veh TMPRSS4 (11748680_a_at) / RFU FAM212B (11763350_a_at) / Fold change /veh FAM212B (11763350_a_at) / RFU PLEKHG5 (11743358_a_at) / Fold change /veh PLEKHG5 (11743358_a_at) / RFU ZSCAN30 (11745921_a_at) / Fold change /veh ZSCAN30 (11745921_a_at) / RFU CMKLR1 (11741424_a_at) / Fold change /veh CMKLR1 (11741424_a_at) / RFU LOC101060620 /// MAPK8IP1 (11723275_at) / Fold change /veh LOC101060620 /// MAPK8IP1 (11723275_at) / RFU SPTSSB (11747773_x_at) / Fold change /veh SPTSSB (11747773_x_at) / RFU PRSS12 (11739890_at) / Fold change /veh PRSS12 (11739890_at) / RFU BIN1 (11741810_x_at) / Fold change /veh BIN1 (11741810_x_at) / RFU WNT11 (11732464_a_at) / Fold change /veh WNT11 (11732464_a_at) / RFU C10orf10 (11716521_a_at) / Fold change /veh C10orf10 (11716521_a_at) / RFU C5orf56 (11738089_at) / Fold change /veh C5orf56 (11738089_at) / RFU CYB561 (11721691_x_at) / Fold change /veh CYB561 (11721691_x_at) / RFU ANKRD19P (11752326_a_at) / Fold change /veh ANKRD19P (11752326_a_at) / RFU OR2T12 /// OR2T33 /// OR2T8 (11738714_s_at) / Fold change /veh OR2T12 /// OR2T33 /// OR2T8 (11738714_s_at) / RFU VCAN (11748164_a_at) / Fold change /veh VCAN (11748164_a_at) / RFU JSRP1 (11732532_at) / Fold change /veh JSRP1 (11732532_at) / RFU KRTAP10-11 (11738290_x_at) / Fold change /veh KRTAP10-11 (11738290_x_at) / RFU MYO3A (11730013_a_at) / Fold change /veh MYO3A (11730013_a_at) / RFU EBF3 (11725865_a_at) / Fold change /veh EBF3 (11725865_a_at) / RFU CAMK2N1 (11719241_x_at) / Fold change /veh CAMK2N1 (11719241_x_at) / RFU C5orf56 (11738088_a_at) / Fold change /veh C5orf56 (11738088_a_at) / RFU OLFML3 (11715873_a_at) / Fold change /veh OLFML3 (11715873_a_at) / RFU LOC100653217 /// NTM (11731650_a_at) / Fold change /veh LOC100653217 /// NTM (11731650_a_at) / RFU MAPK11 (11762145_a_at) / Fold change /veh MAPK11 (11762145_a_at) / RFU FIZ1 (11724087_x_at) / Fold change /veh FIZ1 (11724087_x_at) / RFU OASL (11726364_x_at) / Fold change /veh OASL (11726364_x_at) / RFU SOX15 (11748057_x_at) / Fold change /veh SOX15 (11748057_x_at) / RFU CD79A (11719716_a_at) / Fold change /veh CD79A (11719716_a_at) / RFU HIST1H1D (11736915_at) / Fold change /veh HIST1H1D (11736915_at) / RFU CASKIN2 (11723855_a_at) / Fold change /veh CASKIN2 (11723855_a_at) / RFU LOC730098 (11760151_x_at) / Fold change /veh LOC730098 (11760151_x_at) / RFU OR4N2 (11742367_at) / Fold change /veh OR4N2 (11742367_at) / RFU PRRT2 (11749266_a_at) / Fold change /veh PRRT2 (11749266_a_at) / RFU SNX32 (11753110_a_at) / Fold change /veh SNX32 (11753110_a_at) / RFU CDHR5 (11726645_a_at) / Fold change /veh CDHR5 (11726645_a_at) / RFU RCAN1 (11760418_a_at) / Fold change /veh RCAN1 (11760418_a_at) / RFU FAM167A (11723789_a_at) / Fold change /veh FAM167A (11723789_a_at) / RFU FAM26E (11764081_at) / Fold change /veh FAM26E (11764081_at) / RFU ISYNA1 (11749810_s_at) / Fold change /veh ISYNA1 (11749810_s_at) / RFU ACY1 (11761880_at) / Fold change /veh ACY1 (11761880_at) / RFU 11764098_at / Fold change /veh 11764098_at / RFU SAMD14 (11745864_x_at) / Fold change /veh SAMD14 (11745864_x_at) / RFU NPB (11741838_a_at) / Fold change /veh NPB (11741838_a_at) / RFU TMPRSS6 (11731388_a_at) / Fold change /veh TMPRSS6 (11731388_a_at) / RFU KRTAP10-2 (11738614_at) / Fold change /veh KRTAP10-2 (11738614_at) / RFU ARHGAP8 /// PRR5-ARHGAP8 (11727945_x_at) / Fold change /veh ARHGAP8 /// PRR5-ARHGAP8 (11727945_x_at) / RFU KRTAP5-7 /// NADSYN1 (11734609_at) / Fold change /veh KRTAP5-7 /// NADSYN1 (11734609_at) / RFU RASL12 (11751679_a_at) / Fold change /veh RASL12 (11751679_a_at) / RFU CDKN2B (11736163_a_at) / Fold change /veh CDKN2B (11736163_a_at) / RFU PRF1 (11729649_at) / Fold change /veh PRF1 (11729649_at) / RFU, ZNF638 /// ZNF638-IT1 / Fold change vs veh, ZNF638 /// ZNF638-IT1 / RFU, PANK3 / Fold change vs veh, PANK3 / RFU, SH3YL1 / Fold change vs veh, SH3YL1 / RFU, ZEB2 / Fold change vs veh, ZEB2 / RFU, NRIP1 / Fold change vs veh, NRIP1 / RFU, PTTG1IP / Fold change vs veh, PTTG1IP / RFU, CAPN2 / Fold change vs veh, CAPN2 / RFU, MED14 / Fold change vs veh, MED14 / RFU, SNORA58 / Fold change vs veh, SNORA58 / RFU, C1orf63 / Fold change vs veh, C1orf63 / RFU, LRRFIP1 / Fold change vs veh, LRRFIP1 / RFU, NDUFAF7 / Fold change vs veh, NDUFAF7 / RFU, SLC12A2 / Fold change vs veh, SLC12A2 / RFU, IBTK / Fold change vs veh, IBTK / RFU, ESF1 / Fold change vs veh, ESF1 / Fold change vs veh, TMEM50B / RFU, TAOK1 / Fold change vs veh, TAOK1 / RFU, ACBD3 / Fold change vs veh, ACBD3 / RFU, TMA16 / Fold change vs veh, TMA16 / RFU, RWDD3 / Fold change vs veh, RWDD3 / RFU, BCAT1 / Fold change vs veh, BCAT1 / RFU, EDEM3 / Fold change vs veh, EDEM3 / RFU, TMEM33 / Fold change vs veh, TMEM33 / RFU, WDR75 / Fold change vs veh, WDR75 / RFU, AHCTF1 / Fold change vs veh, AHCTF1 / RFU, TFRC / Fold change vs veh, TFRC / RFU, ZDHHC17 / Fold change vs veh, ZDHHC17 / RFU, NOM1 / Fold change vs veh, NOM1 / RFU, ARL8B / Fold change vs veh, ARL8B / RFU, ZBTB11 / Fold change vs veh, ZBTB11 / RFU, TAMM41 / Fold change vs veh, TAMM41 / RFU, KIAA1704 /// LOC100996395 / Fold change vs veh, KIAA1704 /// LOC100996395 / RFU, ING1 / Fold change vs veh, ING1 / RFU, TRMT61B / Fold change vs veh, TRMT61B / RFU, FUBP3 / Fold change vs veh, FUBP3 / RFU, TP53 / Fold change vs veh, TP53 / RFU, TNKS2 / Fold change vs veh, TNKS2 / RFU, ZFP14 / Fold change vs veh, ZFP14 / RFU, ACTR2 / Fold change vs veh, ACTR2 / RFU, PPP3R1 / Fold change vs veh, PPP3R1 / RFU, PIK3R1 / Fold change vs veh, PIK3R1 / RFU, HNRNPA1 / Fold change vs veh, HNRNPA1 / RFU, RNF170 / Fold change vs veh, RNF170 / RFU, ZNF28 / Fold change vs veh, ZNF28 / RFU, RNGTT / Fold change vs veh, RNGTT / RFU, OGT / Fold change vs veh, OGT / RFU, BRD1 / Fold change vs veh, BRD1 / RFU, MARS / Fold change vs veh, MARS / RFU, ZNF655 / Fold change vs veh, ZNF655 / RFU, FAHD1 / Fold change vs veh, FAHD1 / RFU, BDP1 / Fold change vs veh, BDP1 / RFU, LRRCC1 / Fold change vs veh, LRRCC1 / RFU, ARID1A / Fold change vs veh, ARID1A / RFU, ZNF146 / Fold change vs veh, ZNF146 / RFU, ZNF330 / Fold change vs veh, ZNF330 / RFU, GPN3 / Fold change vs veh, GPN3 / RFU, C9orf123 / Fold change vs veh, C9orf123 / RFU, N4BP2L2 / Fold change vs veh, N4BP2L2 / RFU, ARFIP1 / Fold change vs veh, ARFIP1 / RFU, FAM179B / Fold change vs veh, FAM179B / RFU, BCL10 / Fold change vs veh, BCL10 / RFU, UHRF1BP1L / Fold change vs veh, UHRF1BP1L / RFU, BET1 / Fold change vs veh, BET1 / RFU, CNOT2 / Fold change vs veh, CNOT2 / RFU, ZNF268 / Fold change vs veh, ZNF268 / Fold change vs veh, ZNF507 / RFU, DGCR2 / Fold change vs veh, DGCR2 / RFU, WDSUB1 / Fold change vs veh, WDSUB1 / Fold change vs veh, HSP90B1 /// MIR3652 / RFU, ADSS / Fold change vs veh, ADSS / RFU, GK / Fold change vs veh, GK / RFU, ZNF148 / Fold change vs veh, ZNF148 / RFU, TAF9 / Fold change vs veh, TAF9 / RFU, SLC1A5 / Fold change vs veh, SLC1A5 / RFU, SLMO2 / Fold change vs veh, SLMO2 / RFU, ABCC4 / Fold change vs veh, ABCC4 / RFU, LOC101060439 /// RAP1B / Fold change vs veh, LOC101060439 /// RAP1B / RFU, RFX7 / Fold change vs veh, RFX7 / RFU, GTPBP10 / Fold change vs veh, GTPBP10 / RFU, CNEP1R1 / Fold change vs veh, CNEP1R1 / RFU, BIVM-ERCC5 /// ERCC5 / Fold change vs veh, BIVM-ERCC5 /// ERCC5 / RFU, ILF3 / Fold change vs veh, ILF3 / RFU 11762660_at / Fold change /veh 11762660_at / RFU VCAN (11757783_s_at) / Fold change /veh VCAN (11757783_s_at) / RFU DDX43 (11728927_at) / Fold change /veh DDX43 (11728927_at) / RFU KRT8 (11758188_x_at) / Fold change /veh KRT8 (11758188_x_at) / RFU NKD1 (11759106_at) / Fold change /veh NKD1 (11759106_at) / RFU SRD5A1 (11742802_a_at) / Fold change /veh SRD5A1 (11742802_a_at) / RFU TPSAB1 /// TPSB2 (11721975_s_at) / Fold change /veh TPSAB1 /// TPSB2 (11721975_s_at) / RFU GSTM3 (11746129_a_at) / Fold change /veh GSTM3 (11746129_a_at) / RFU IL23R (11737362_x_at) / Fold change /veh IL23R (11737362_x_at) / RFU TMEM51 (11727254_a_at) / Fold change /veh TMEM51 (11727254_a_at) / RFU PIWIL2 (11732686_x_at) / Fold change /veh PIWIL2 (11732686_x_at) / RFU ORM1 (11744905_x_at) / Fold change /veh ORM1 (11744905_x_at) / RFU CCDC152 (11743942_at) / Fold change /veh CCDC152 (11743942_at) / RFU ECM1 (11717891_a_at) / Fold change /veh ECM1 (11717891_a_at) / RFU IL23R (11748794_a_at) / Fold change /veh IL23R (11748794_a_at) / RFU TNFAIP8L3 (11732012_x_at) / Fold change /veh TNFAIP8L3 (11732012_x_at) / RFU MBOAT4 (11741988_at) / Fold change /veh MBOAT4 (11741988_at) / RFU 11764193_at / Fold change /veh 11764193_at / RFU TMEM53 (11763286_at) / Fold change /veh TMEM53 (11763286_at) / RFU MAGEB2 (11727129_at) / Fold change /veh MAGEB2 (11727129_at) / RFU TMEM200A (11744735_a_at) / Fold change /veh TMEM200A (11744735_a_at) / RFU CCDC152 (11751479_a_at) / Fold change /veh CCDC152 (11751479_a_at) / RFU FAM211A (11726209_a_at) / Fold change /veh FAM211A (11726209_a_at) / RFU RGS16 (11746705_a_at) / Fold change /veh RGS16 (11746705_a_at) / RFU VCAN (11755009_s_at) / Fold change /veh VCAN (11755009_s_at) / RFU RHOB (11743442_s_at) / Fold change /veh RHOB (11743442_s_at) / RFU RGS16 (11720943_a_at) / Fold change /veh RGS16 (11720943_a_at) / RFU RGS16 (11720944_at) / Fold change /veh RGS16 (11720944_at) / RFU, VPS4B / Fold change vs veh, VPS4B / RFU, CREB1 / Fold change vs veh, CREB1 / RFU, DNAJC13 / Fold change vs veh, DNAJC13 / RFU, GNAQ / Fold change vs veh, GNAQ / RFU, CDK5R1 / Fold change vs veh, CDK5R1 / RFU, ZRANB3 / Fold change vs veh, ZRANB3 / RFU, CUL4A / Fold change vs veh, CUL4A / RFU, CCNY / Fold change vs veh, CCNY / RFU, UFL1 / Fold change vs veh, UFL1 / RFU, COG3 / Fold change vs veh, COG3 / RFU, DIAPH2 / Fold change vs veh, DIAPH2 / RFU, SKA2 / Fold change vs veh, SKA2 / RFU, AFF3 / Fold change vs veh, AFF3 / RFU, LMF1 / Fold change vs veh, LMF1 / RFU, IPO11 / Fold change vs veh, IPO11 / RFU, DFFB / Fold change vs veh, DFFB / RFU, FOXP1 / Fold change vs veh, FOXP1 / RFU, CARD8 / Fold change vs veh, CARD8 / RFU, STRN3 / Fold change vs veh, STRN3 / RFU, ADK / Fold change vs veh, ADK / RFU, RASSF2 / Fold change vs veh, RASSF2 / RFU, WIPF1 / Fold change vs veh, WIPF1 / RFU, LARP1B / Fold change vs veh, LARP1B / RFU, RASA1 / Fold change vs veh, RASA1 / RFU, RB1 / Fold change vs veh, RB1 / RFU, PPFIA1 / Fold change vs veh, PPFIA1 / RFU, MAT2A / Fold change vs veh, MAT2A / RFU, CCT5 / Fold change vs veh, CCT5 / RFU, WDR92 / Fold change vs veh, WDR92 / RFU, CUX1 / Fold change vs veh, CUX1 / RFU, TTC7A / Fold change vs veh, TTC7A / RFU, TMEM135 / Fold change vs veh, TMEM135 / RFU, DEPTOR / Fold change vs veh, DEPTOR / RFU, CPM / Fold change vs veh, CPM / RFU, DNAJB6 / Fold change vs veh, DNAJB6 / RFU, CACNA2D3 / Fold change vs veh, CACNA2D3 / RFU, DTX4 / Fold change vs veh, DTX4 / RFU, TFCP2 / Fold change vs veh, TFCP2 / RFU, GMCL1 /// GMCL1P1 / Fold change vs veh, GMCL1 /// GMCL1P1 / RFU, AEBP2 / Fold change vs veh, AEBP2 / RFU, SNHG1 /// SNORD22 /// SNORD25 /// SNORD26 /// SNORD27 /// SNORD28 /// SNORD29 /// SNORD31 / Fold change vs veh, SNHG1 /// SNORD22 /// SNORD25 /// SNORD26 /// SNORD27 /// SNORD28 /// SNORD29 /// SNORD31 / Fold change (Aza/veh), C12orf56 (ProbeSet 11735607_a_at) / Fold change (ACY-1035/veh), C12orf56 (ProbeSet 11735607_a_at) / Fold change (Aza/veh), FGFR1OP (ProbeSet 11751329_s_at) / Fold change (ACY-1035/veh), FGFR1OP (ProbeSet 11751329_s_at) / Fold change (Aza/veh), VPS36 (ProbeSet 11739960_a_at) / Fold change (ACY-1035/veh), VPS36 (ProbeSet 11739960_a_at) / RFU SYPL1 (11715823_x_at) / Fold change /veh SYPL1 (11715823_x_at) / RFU IGFBP7 (11715501_s_at) / Fold change /veh IGFBP7 (11715501_s_at) / RFU REEP3 (11722064_at) / Fold change /veh REEP3 (11722064_at) / RFU IGLL1 (11728026_x_at) / Fold change /veh IGLL1 (11728026_x_at): dose or concentration left out as unconfirmed
Settings: ProbeSet 11740528_a_at; LIST D

Nc1ncn([C@@H]2O[C@H](CO)[C@@H](O)[C@H]2O)c(=O)n1 [azacitidine]
RFU, AFF3: 349.86 RFU
